According to ChEMBL document CHEMBL1201862, “PubChem BioAssay data set” (2004):
Calls of active or inactive are those of the source.

Legend:
Prothrombin = Prothrombin (Homo sapiens, UniProt P00734); assay: Thrombin 1536 HTS Dose Response Confirmation. [Related pubchem assays: 1046 (Thrombin 1536 HTS; hits were confirmed in this assay)]; format: functional
[1] = target: T1, Tyrosine-protein phosphatase non-receptor type 7 (Homo sapiens, UniProt P35236); assay: HePTP tyrosine phosphatase activity blockers – biochemical, absorbance, leukemia target, primary screen (AID 521); format: functional
T1 sequence (P35236 whole entry): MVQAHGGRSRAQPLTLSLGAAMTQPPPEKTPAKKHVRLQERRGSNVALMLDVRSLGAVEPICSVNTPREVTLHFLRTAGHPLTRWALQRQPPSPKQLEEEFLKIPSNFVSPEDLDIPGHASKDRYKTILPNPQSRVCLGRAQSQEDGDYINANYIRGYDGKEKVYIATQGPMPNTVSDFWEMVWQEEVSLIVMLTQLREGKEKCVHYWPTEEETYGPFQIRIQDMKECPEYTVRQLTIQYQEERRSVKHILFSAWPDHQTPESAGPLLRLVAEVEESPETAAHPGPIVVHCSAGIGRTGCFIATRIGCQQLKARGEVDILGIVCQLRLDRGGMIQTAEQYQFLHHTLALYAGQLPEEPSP

[2] = target: Eukaryotic translation initiation factor 4E (Mus musculus, UniProt P63073); assay: blockers of eIF4G binding by eIF4E – biochemical, TR-FRET, dose response (AID 855); format: functional;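 further: potency for disrupting eIF4E binding to eIF4GI seen as loss of FRET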
Cytochrome P450 3A4 [3] = target: T2, Cytochrome P450 3A4 (Homo sapiens, UniProt P08684);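 further: CYP3A4 tested as one member of a cytochrome P450 panel screen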
Cytochrome P450 2C9 [4] = target: T3, Cytochrome P450 2C9 (Homo sapiens, UniProt P11712)
Cytochrome P450 2C19 = Cytochrome P450 2C19 (Homo sapiens, UniProt P33261); assay: Cytochrome panel assay with activity outcomes. Panel member name: p450-cyp2c19 Compounds with AC50 equal or less than 10 uM are considered active; format: functional
[5] = target: T4, Microphthalmia-associated transcription factor (Homo sapiens, UniProt O75030); assay: reducers of TRPM1 reporter luminescence, concentration series – cell-based, SK-MEL-5, cherry-picked, set 3, MITF inhibitor project, dose response (AID 493073); format: functional;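 further: SK-MEL-5 melanoma cells with luciferase driven by the MITF target TRPM1 promoter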
T4 sequence (O75030 whole entry): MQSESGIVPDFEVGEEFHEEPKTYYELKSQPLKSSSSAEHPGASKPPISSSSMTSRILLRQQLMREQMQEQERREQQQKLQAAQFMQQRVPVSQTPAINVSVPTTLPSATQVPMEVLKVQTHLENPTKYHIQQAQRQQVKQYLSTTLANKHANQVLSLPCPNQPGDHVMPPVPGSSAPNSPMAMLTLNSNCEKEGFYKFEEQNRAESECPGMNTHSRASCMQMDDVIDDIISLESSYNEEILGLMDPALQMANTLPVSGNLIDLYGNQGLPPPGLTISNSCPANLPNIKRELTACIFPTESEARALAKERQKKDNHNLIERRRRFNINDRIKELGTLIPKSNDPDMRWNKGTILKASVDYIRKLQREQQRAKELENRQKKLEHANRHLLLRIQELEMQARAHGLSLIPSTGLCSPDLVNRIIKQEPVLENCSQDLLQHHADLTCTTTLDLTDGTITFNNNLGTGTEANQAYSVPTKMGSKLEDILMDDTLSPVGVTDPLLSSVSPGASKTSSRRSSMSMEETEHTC

[6] = MIN6 cell viability loss – mouse insulinoma, cytotoxicity control, dose response (AID 2122); format: functional;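 further: confirmatory high-throughput counterscreen run to flag cytotoxic compounds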
INS1 = assay: INS-1E survival protection against cytokine death – cell-based, luminescence, retest, dose response (AID 449756); format: functional; conditions: Rattus norvegicus;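 further: cell death triggered by IL-1 beta plus TNF-alpha plus IFN-gamma mixture; protective hits raise ATP signal compared with cytokine alone wells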
[7] = decrease of insulin promoter-GFP reporter – imaging, high-content screening, mouse beta cells (AID 1628); format: functional; conditions: MIN6
Cytochrome P450 3A4 [8] = target: T2, Cytochrome P450 3A4; remark: listed apart in the source
Cytochrome P450 2D6 = Cytochrome P450 2D6 (Homo sapiens, UniProt P10635);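 further: CYP2D6 member of a cytochrome P450 panel assay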
[9] = Trypanosoma cruzi growth suppression in host cells – NIH3T3 host cells, beta-gal luminescence, confirmation (AID 2044); format: functional, cell-based;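 further: intracellular parasites grown in NIH/3T3 mouse fibroblasts as host cells; luminescent beta-galactosidase reporter signal from transgenic T. cruzi replicating inside host cells; inhibitors lower the luminescence signal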
[10] = viability of HCT116 lacking mutant beta-catenin – cell-based, human colon tumor, dose response (AID 1045); format: functional;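 further: HCT116 colon tumor cells with beta catenin knocked out; cells exposed to compound for 60 hours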
[11] = NIH3T3 cell viability loss – ATP luminescence, mouse fibroblasts, counter-screen, dose response (AID 2010); format: functional, cell-based;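 further: cells exposed to compound for about 90 hours before reading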
[12] = target: T5, Zinc finger protein mex-5 (Caenorhabditis elegans, UniProt Q9XUB2); assay: potency of MEX-5 RNA-binding blockers – biochemical, C. elegans, fluorescence polarization, dose response (AID 1960)
T5 sequence (Q9XUB2 whole entry): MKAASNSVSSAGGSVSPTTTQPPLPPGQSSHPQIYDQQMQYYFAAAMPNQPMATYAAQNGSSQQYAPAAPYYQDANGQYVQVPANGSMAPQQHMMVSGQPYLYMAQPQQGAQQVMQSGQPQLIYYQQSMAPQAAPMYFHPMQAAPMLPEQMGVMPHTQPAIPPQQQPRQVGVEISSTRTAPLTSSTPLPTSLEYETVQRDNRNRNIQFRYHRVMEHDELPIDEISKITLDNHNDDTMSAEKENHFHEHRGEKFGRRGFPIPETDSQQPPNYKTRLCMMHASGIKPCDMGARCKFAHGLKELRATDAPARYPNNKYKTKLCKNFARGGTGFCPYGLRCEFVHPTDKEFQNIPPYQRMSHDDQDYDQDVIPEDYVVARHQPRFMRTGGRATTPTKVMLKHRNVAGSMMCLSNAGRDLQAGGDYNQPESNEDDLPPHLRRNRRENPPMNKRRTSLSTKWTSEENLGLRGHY

Streptococcus = assay: GAS UMAA2166 growth inhibition – luminescence, BacTiterGlo, counter-screen for streptokinase expression inhibitor project, dose response (AID 1915); format: functional, organism-based;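 further: potency for reduction of bacterial viability or growth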
[13] = test system: Streptococcus sp. 'group A'; assay: Streptococcus pyogenes SK(-)GAS viability under kanamycin – luminescence, BacTiterGlo, confirmation, counter-screen for streptokinase expression inhibitor project, dose response (AID 1900); format: functional, organism-based
[14] = target: T6, RNA-binding protein pos-1 (Caenorhabditis elegans, UniProt G5EF15); assay: disruptors of C. elegans POS-1 RNA interaction – biochemical, fluorescence polarization, dose response (AID 1964);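 further: purified POS-1 fused to maltose binding protein made in E. coli; potency of compounds blocking POS-1 binding to fluorescent RNA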
T6 sequence (G5EF15 whole entry): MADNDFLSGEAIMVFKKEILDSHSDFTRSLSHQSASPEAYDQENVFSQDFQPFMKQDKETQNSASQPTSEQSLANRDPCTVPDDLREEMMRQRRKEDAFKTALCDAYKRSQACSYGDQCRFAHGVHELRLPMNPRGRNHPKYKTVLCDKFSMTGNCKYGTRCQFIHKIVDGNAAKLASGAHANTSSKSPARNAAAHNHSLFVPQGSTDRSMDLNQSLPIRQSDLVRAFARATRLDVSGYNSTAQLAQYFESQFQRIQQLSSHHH

[15] = viability of PTEN-deleted HCT116 cells – cell-based, HCT116 PTEN knockout, dose response (AID 1047); format: functional;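 further: HCT116 colon tumor cells with PTEN knocked out; cells exposed to compound for 60 hours before readout; potency for loss of cell viability measured by luminescence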
fMet-Leu-Phe receptor = target: T7, fMet-Leu-Phe receptor (Homo sapiens, UniProt P21462); assay: formyl peptide receptor binders – dose response (AID 519); format: functional
T7 sequence (P21462 whole entry): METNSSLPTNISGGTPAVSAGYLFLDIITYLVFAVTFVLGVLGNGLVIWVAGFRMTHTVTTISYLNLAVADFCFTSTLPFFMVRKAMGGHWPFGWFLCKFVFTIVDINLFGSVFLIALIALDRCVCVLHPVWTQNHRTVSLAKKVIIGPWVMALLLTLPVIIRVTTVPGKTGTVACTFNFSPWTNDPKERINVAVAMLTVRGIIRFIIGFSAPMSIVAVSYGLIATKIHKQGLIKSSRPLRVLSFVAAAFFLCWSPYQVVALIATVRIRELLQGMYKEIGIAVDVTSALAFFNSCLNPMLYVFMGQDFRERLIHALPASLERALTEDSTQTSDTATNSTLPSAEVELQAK

Aminopeptidase N = target: T8, Aminopeptidase N (Plasmodium falciparum FcB1/Columbia, UniProt O96935); assay: malaria alanyl aminopeptidase activity blockers – biochemical, fluorogenic H-Leu-NHMec substrate, 1536-well (AID 1445); parameters: species or system Plasmodium falciparum 3D7, 3D7
T8 sequence (O96935 whole entry): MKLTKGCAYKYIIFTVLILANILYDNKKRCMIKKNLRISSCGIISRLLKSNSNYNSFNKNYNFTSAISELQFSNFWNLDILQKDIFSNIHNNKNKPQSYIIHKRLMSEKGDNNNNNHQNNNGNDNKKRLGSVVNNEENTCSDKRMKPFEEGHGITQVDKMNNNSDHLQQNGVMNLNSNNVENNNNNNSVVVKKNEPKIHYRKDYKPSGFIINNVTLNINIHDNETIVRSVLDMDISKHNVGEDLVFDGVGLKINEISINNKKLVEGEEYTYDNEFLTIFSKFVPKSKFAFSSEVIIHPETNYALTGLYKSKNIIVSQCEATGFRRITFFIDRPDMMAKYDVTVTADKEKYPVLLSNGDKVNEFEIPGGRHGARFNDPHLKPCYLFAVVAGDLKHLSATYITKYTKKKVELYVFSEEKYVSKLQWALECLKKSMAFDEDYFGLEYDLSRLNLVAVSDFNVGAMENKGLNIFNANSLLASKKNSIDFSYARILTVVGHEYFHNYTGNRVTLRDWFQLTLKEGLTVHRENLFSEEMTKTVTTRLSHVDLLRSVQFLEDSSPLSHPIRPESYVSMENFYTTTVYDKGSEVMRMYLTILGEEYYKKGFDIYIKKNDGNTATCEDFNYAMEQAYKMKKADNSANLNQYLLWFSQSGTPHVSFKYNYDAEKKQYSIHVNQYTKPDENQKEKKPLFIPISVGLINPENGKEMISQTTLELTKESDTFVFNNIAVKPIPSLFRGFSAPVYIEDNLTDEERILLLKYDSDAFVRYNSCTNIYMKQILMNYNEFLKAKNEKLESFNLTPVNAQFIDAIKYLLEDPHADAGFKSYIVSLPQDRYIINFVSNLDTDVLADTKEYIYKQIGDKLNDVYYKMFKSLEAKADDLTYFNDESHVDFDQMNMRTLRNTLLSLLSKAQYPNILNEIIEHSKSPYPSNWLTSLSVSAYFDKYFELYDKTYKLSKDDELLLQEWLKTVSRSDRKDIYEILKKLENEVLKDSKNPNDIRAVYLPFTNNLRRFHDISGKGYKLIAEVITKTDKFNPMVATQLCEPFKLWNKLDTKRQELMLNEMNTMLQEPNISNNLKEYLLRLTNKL

Large T antigen = Large T antigen (Simian virus 40, UniProt P03070); format: functional, Betapolyomavirus macacae;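 further: Confirmatory-stage PubChem screen for compounds that inhibit SV40 T antigen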
cells = format: functional
[16] = cytotoxicity in MITF-independent A375 cells – cell-based, CellTiter-Glo luminescence, dry powder, set 4, counter-screen for MITF inhibitor project, dose response (AID 624364); format: functional; conditions: A-375;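 further: A375 melanoma cells are MITF independent so this is a counter screen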
Cytochrome P450 2C9 [17] = target: T3, Cytochrome P450 2C9; remark: listed apart in the source
[18] = P. falciparum Dd2 growth inhibitors, dose response, SYBR Green, cherry-picked samples (AID 1159567); format: functional, cell-based

T3 sequence (P11712 whole entry): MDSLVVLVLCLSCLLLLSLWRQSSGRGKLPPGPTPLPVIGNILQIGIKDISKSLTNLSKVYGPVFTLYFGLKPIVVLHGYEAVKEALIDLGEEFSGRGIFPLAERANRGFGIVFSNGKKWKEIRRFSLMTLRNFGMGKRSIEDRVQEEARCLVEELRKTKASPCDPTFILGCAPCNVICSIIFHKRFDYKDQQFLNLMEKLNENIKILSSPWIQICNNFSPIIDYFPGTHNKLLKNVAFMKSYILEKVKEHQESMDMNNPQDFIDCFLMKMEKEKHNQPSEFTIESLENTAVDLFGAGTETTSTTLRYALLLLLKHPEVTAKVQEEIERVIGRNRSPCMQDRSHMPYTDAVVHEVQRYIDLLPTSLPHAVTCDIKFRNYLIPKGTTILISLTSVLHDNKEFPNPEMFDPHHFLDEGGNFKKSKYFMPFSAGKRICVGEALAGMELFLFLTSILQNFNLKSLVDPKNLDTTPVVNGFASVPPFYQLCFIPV
T2 sequence (P08684 whole entry): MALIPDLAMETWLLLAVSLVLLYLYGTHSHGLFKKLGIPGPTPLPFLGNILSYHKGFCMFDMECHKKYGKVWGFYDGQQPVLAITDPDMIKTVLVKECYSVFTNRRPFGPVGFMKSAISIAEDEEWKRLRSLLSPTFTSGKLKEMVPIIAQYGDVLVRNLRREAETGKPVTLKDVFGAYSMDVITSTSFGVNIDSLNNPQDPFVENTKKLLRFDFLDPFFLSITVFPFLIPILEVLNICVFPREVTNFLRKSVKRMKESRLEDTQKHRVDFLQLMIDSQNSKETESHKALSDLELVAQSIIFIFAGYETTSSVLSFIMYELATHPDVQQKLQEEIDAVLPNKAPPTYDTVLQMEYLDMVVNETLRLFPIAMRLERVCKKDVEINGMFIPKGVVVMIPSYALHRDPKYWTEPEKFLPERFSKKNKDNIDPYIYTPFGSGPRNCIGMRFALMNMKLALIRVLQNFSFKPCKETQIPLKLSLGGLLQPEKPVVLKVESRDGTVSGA
Cytochrome P450 2C19, sequence (P33261 whole entry): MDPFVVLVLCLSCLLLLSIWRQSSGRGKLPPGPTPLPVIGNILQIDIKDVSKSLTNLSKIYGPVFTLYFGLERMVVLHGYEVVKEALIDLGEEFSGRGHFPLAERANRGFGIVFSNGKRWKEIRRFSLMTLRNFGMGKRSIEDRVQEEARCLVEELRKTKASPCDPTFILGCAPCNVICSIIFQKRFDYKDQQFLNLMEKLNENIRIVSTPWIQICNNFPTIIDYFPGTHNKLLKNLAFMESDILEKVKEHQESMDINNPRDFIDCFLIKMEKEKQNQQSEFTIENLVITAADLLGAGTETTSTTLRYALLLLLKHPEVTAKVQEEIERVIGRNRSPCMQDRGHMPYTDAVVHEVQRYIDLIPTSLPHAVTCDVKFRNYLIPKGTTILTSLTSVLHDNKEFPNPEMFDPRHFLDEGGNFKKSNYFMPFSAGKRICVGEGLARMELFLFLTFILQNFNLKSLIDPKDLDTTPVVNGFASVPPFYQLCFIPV
Eukaryotic translation initiation factor 4E, sequence (P63073 whole entry): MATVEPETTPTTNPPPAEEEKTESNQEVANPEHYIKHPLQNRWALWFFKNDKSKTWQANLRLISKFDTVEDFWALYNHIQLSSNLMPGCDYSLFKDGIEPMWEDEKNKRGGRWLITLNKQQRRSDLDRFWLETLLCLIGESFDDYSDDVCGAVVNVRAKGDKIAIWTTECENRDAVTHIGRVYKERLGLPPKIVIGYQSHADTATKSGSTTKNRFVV
Cytochrome P450 2D6, sequence (P10635 whole entry): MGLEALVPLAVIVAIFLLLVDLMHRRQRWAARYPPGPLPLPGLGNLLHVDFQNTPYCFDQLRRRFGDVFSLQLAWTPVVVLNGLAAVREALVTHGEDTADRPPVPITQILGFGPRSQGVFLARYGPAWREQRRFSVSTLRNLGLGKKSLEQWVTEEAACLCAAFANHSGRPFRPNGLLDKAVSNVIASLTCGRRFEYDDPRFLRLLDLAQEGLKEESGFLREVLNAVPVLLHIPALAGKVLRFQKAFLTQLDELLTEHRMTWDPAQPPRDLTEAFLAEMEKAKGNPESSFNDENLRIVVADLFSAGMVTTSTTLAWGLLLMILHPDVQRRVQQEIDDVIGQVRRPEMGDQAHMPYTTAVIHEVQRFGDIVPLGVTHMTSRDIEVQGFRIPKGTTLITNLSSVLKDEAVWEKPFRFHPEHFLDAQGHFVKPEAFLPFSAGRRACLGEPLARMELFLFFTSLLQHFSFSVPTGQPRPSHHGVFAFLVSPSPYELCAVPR
Large T antigen, sequence (P03070 whole entry): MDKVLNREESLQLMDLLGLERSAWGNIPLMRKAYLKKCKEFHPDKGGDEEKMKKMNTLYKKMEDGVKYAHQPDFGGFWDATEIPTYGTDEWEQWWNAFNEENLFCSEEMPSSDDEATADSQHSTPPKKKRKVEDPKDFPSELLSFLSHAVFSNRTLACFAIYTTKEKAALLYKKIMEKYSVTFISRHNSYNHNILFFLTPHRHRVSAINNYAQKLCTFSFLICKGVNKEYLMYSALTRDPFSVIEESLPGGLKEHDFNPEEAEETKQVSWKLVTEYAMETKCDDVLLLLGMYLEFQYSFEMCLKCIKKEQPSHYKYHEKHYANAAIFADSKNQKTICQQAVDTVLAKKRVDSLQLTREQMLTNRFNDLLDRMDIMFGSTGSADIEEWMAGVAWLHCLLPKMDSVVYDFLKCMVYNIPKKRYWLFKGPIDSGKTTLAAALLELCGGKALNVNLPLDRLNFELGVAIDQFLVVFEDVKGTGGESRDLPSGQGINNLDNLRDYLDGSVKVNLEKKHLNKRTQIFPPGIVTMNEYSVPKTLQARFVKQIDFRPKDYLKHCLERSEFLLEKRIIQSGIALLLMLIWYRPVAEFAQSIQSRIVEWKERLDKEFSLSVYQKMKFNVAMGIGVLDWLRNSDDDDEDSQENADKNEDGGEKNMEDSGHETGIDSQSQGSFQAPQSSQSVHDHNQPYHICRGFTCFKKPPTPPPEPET

CCCCOC(=O)Sc1nc2ccccc2o1
IC50 (Prothrombin): 3.11 µM (active)

COc1ccc2c3ncn(CC4CCCO4)c(O)c-3nc2c1 (centres undefined)
IC50 [1]: > 100 µM (not active)

COC(=O)n1c(=S)oc2cc(Cl)ccc21
IC50 [2]: > 64 µM (inactive)

CCC1Oc2ccccc2N(CC(=O)NCCCN2CCCCC2C)C1=O (centres undefined)
AC50 (Cytochrome P450 3A4 [3]): 20 µM (inconclusive)
AC50 (Cytochrome P450 2C9 [4]): inconclusive
AC50 (Cytochrome P450 2C19): 2.24 µM (inconclusive)

CC(O)(CS(=O)(=O)c1cccc(C(F)(F)F)c1)C(=O)Nc1cccc(C(F)(F)F)c1 (centres undefined)
AC50 (Cytochrome P450 2C9 [4]): inconclusive

O=[N+]([O-])c1cccc2c(N3CCCC3)ccnc12
AC50 [5]: 2.47 µM (active)
IC50 [6]: 1.18 µM (active)
AC50 (INS1): 3.17 µM (active)
IC50 [7]: 2.41 µM (active)

CC(C)(C)c1ccc(OCC(=O)NNC(=O)CCc2ccccc2)cc1
AC50 (Cytochrome P450 3A4 [8]): inconclusive
AC50 (Cytochrome P450 2C9 [4]): inconclusive
AC50 (Cytochrome P450 2C19): 14.1 µM (inconclusive)

CCCC(=O)Nc1ccc(C(=O)Nc2cc(C(F)(F)F)ccc2Cl)cc1
AC50 (Cytochrome P450 3A4 [3]): 15.8 µM (inconclusive)
AC50 (Cytochrome P450 2C9 [4]): inconclusive
AC50 (Cytochrome P450 2D6): 8.91 µM (inconclusive)

COc1ccc(-n2nc(C(=O)c3cccs3)cc(-c3nc4ccccc4[nH]3)c2=N)cc1
EC50 [9]: 531 nM (active)
EC50 [10]: 11.2 µM (active)
EC50 [11]: > 60 µM (not active)
EC50 [12]: 66.3 µM (active)
EC50 (Streptococcus): 10 µM (active)
EC50 [13]: 3.26 µM (active)
EC50 [14]: 53.8 µM (active)
EC50 [15]: 14.6 µM (active)
IC50 (Prothrombin): > 50 µM (not active)

CCN(CC)CCCN(Cc1cc2cc3c(cc2[nH]c1=O)OCO3)C(=S)Nc1ccccc1OC
IC50 (Prothrombin): > 50 µM (not active)

Cc1ccc(-n2c(Cc3cccn3C)nnc2SCC(=O)NCc2ccco2)cc1
IC50 [1]: > 100 µM (not active)

O=C(NC1CCCC1)c1sc(=S)n2c1[nH]c(=O)c1ccccc12
Ki (fMet-Leu-Phe receptor): 14.7 µM (active)
IC50 (Aminopeptidase N): 35 µM (active)
IC50 (Large T antigen): > 100 µM (active)

CCOc1cccc2cc(C(=O)Nc3nccs3)c(=O)oc12
IC50 (cells): 1.31 µM (active)
IC50 [1]: > 100 µM (not active)

COc1ccccc1CN(CC(=O)NCc1ccco1)C(=O)CNS(=O)(=O)c1ccc(C)cc1
IC50 (Prothrombin): 7.63 µM (active)

CCC(C)[C@H](NC(=O)NCC1CCCO1)C(=O)OC (some centres undefined)
IC50 [1]: > 100 µM (not active)

O=C1C(NS(=O)(=O)c2ccc(Br)cc2)=C(N2CCN(c3ccccc3)CC2)C(=O)c2ccccc21
AC50 [16]: > 70 µM (inactive)

COc1ccc(/C=N/n2cnc3c4cc(Br)ccc4nc-3c2O)cc1CN1CCOCC1
AC50 (Cytochrome P450 2C9 [17]): 3.55 µM (inconclusive)
IC50 [2]: > 64 µM (inactive)

O=C(C[C@H]1CC[C@@H]2[C@H](COC[C@@H](O)CN2C(=O)Nc2ccc3c(c2)OCO3)O1)N1CCN(c2ccccc2)CC1
AC50 [18]: 22.8 µM (active)
